According to patent US20220024900A1, “Compounds and Their Use for Reducing Uric Acid Levels” (Acquist LLC, priority 2016, published 2022):

What follows are compounds tested against xanthine oxidase (Homo sapiens, UniProt P47989) (assay: Fluorescence-based xanthine oxidase activity assay). Details: verbal rating.
Type: biochemical

Chain of xanthine oxidase (P47989 whole entry, species assumed): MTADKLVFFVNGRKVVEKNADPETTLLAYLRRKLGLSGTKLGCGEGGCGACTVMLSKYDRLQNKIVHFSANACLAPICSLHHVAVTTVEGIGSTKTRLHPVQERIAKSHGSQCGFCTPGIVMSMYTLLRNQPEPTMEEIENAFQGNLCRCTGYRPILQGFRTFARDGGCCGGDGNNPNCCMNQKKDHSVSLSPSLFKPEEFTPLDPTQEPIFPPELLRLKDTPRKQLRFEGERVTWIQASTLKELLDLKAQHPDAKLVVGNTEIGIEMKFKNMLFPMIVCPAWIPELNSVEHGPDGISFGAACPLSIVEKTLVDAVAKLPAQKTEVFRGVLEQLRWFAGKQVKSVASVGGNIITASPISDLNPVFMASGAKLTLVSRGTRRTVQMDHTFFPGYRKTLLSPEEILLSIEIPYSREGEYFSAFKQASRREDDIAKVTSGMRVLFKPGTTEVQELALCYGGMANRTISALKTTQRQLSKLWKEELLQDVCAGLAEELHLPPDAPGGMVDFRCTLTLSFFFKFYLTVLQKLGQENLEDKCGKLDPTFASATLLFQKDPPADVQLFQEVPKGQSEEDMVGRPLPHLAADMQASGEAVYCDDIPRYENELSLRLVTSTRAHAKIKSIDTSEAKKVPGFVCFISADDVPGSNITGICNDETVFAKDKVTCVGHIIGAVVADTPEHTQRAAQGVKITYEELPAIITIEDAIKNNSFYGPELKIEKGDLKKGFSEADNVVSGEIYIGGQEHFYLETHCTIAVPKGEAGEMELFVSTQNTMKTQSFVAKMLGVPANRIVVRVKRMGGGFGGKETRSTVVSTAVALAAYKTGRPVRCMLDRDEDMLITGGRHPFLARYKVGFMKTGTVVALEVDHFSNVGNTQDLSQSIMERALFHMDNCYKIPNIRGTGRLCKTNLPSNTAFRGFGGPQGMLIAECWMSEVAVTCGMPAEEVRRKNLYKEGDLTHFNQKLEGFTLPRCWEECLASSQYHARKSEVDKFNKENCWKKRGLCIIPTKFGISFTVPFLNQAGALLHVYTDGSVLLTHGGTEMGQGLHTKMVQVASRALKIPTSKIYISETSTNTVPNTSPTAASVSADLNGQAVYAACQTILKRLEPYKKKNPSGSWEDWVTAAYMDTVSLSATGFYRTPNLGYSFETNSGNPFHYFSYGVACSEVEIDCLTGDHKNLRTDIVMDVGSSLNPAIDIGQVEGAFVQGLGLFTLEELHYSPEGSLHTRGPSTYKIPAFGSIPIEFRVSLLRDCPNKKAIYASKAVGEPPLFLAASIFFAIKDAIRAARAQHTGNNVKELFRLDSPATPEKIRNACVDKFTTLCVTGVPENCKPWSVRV

**Q.** `CC(C)Sc1nc(O)c(C(=O)Nc2ccc(-c3c[nH]nn3)cc2)c(=O)[nH]1` [Formula (IId), N-(4-(1H-1,2,3-triazol-5-yl)phenyl)-4-hydroxy-2-(isopropylthio)-6-oxo-1,6-dihydropyrimidine-5-carboxamide] was tested. Which “inhibition of xanthine oxidase compared to allopurinol” value (from here on “inhibition … compared to allopurinol”) did it give?
**A.** Its value is “particularly potent inhibitors”.

**Q.** With `N=C(Nc1ccc(-c2cnn[nH]2)cc1)c1c(O)[nH]c(=O)[nH]c1=O` [Formula (Ia), N-(4-(1H-1,2,3-triazol-4-yl)phenyl)-6-hydroxy-2,4-dioxo-1,2,3,4-tetrahydropyrimidine-5-carboximidamide] as the compound, how does the “inhibition … compared to allopurinol” value read?
**A.** Its value is “particularly potent inhibitors”.

**Q.** With `O=c1[nH]c(=O)c2c(Nc3ccc(-c4cnn[nH]4)cc3)noc2[nH]1` [Formula (VIa), 3-((4-(1H-1,2,3-triazol-5-yl)phenyl)amino)isoxazolo[5,4-d]pyrimidine-4,6(5H,7H)-dione] as the compound, how does the “inhibition … compared to allopurinol” value read?
**A.** Its value is “particularly potent inhibitors”.

**Q.** With `Cn1c(O)c(C(=N)Nc2ccc(-c3cnn[nH]3)cc2)c(=O)n(C)c1=O` [Formula (If), N-(4-(1H-1,2,3-triazol-5-yl)phenyl)-6-hydroxy-1,3-dimethyl-2,4-dioxo-1,2,3,4-tetrahydropyrimidine-5-carboximidamide] as the compound, how does the “inhibition … compared to allopurinol” value read?
**A.** The value was “particularly potent inhibitors”.

**Q.** With `O=c1[nH]c(=O)c2c(Nc3ccc(-c4cnn[nH]4)cc3)n[nH]c2[nH]1` [Formula (VIb), 3-((4-(1H-1,2,3-triazol-5-yl)phenyl)amino)-1H-pyrazolo[3,4-d]pyrimidine-4,6(5H,7H)-dione] as the compound, how does the “inhibition … compared to allopurinol” value read?
**A.** The value was “particularly potent inhibitors”.

**Q.** How did the “inhibition … compared to allopurinol” value turn out when `Nc1[nH]c(=O)[nH]c(=O)c1C(=O)Nc1ccc(-c2c[nH]nn2)cc1` [Formula (Ik), N-(4-(1H-1,2,3-triazol-5-yl)phenyl)-6-amino-2,4-dioxo-1,2,3,4-tetrahydropyrimidine-5-carboxamide] was run?
**A.** The value was “particularly potent inhibitors”.

**Q.** Which “inhibition … compared to allopurinol” value does the source give for `Cn1c(=O)[nH]c(O)c(C(=O)Nc2ccc(-c3cnn[nH]3)cc2)c1=O` [Formula (Ig), N-(4-(1H-1,2,3-triazol-4-yl)phenyl)-2,4-dihydroxy-1-methyl-6-oxo-1,6-dihydropyrimidine-5-carboxamide] here?
**A.** The value was “particularly potent inhibitors”.

**Q.** With `COc1nc(O)c(C(=O)Nc2ccc(-c3cnn[nH]3)cc2)c(=O)[nH]1` [Formula (IIb), N-(4-(3H-1,2,3-triazol-4-yl)phenyl)-4-hydroxy-2-methoxy-6-oxo-1,6-dihydropyrimidine-5-carboxamide] as the compound, how does the “inhibition … compared to allopurinol” value read?
**A.** The value was “particularly potent inhibitors”.

**Q.** `Cn1c(=O)[nH]c(O)c(C(=N)Nc2ccc(-c3cnn[nH]3)cc2)c1=O` [Formula (Ih)] was tested. Which “inhibition … compared to allopurinol” value did it give?
**A.** The value was “particularly potent inhibitors”.

**Q.** With `O=c1[nH]c(O)c(/C(=N\O)Nc2ccc(-c3cnn[nH]3)cc2)c(=O)[nH]1` [Formula (Ic), (E)-N-(4-(1H-1,2,3-triazol-5-yl)phenyl)-N′-hydroxy-2,4,6-trioxohexahydro-pyrimidine-5-carboximidamide] as the compound, how does the “inhibition … compared to allopurinol” value read?
**A.** Its value is “particularly potent inhibitors”.
